Measurements reported in article PMC6007354 (2016).

Legend:
[1] = tested on: tRNA (GCGCGCGCGC) (RNA, other) GCGCGCGCGC; assay: 1H NMR titration; details: 0.01 M HEPES pH 7.4 in D2O; shifts of probe and base protons
[2] = tested on: tRNA (AUAUAUAUAU) (RNA, other) AUAUAUAUAU; assay: 1H NMR titration; details: 0.01 M HEPES pH 7.4 in D2O; shifts of probe and base protons
[3] = tested on: tRNA (GCGCGCGCGC) (RNA, other) GCGCGCGCGC; assay: fluorescence turn-on (443 nm); details: 10 mM HEPES pH 7.4; probe 10 uM; quantum yield 0.22; no constant
[4] = tested on: tRNA (AUAUAUAUAU) (RNA, other) AUAUAUAUAU; assay: fluorescence turn-on (443 nm); details: 10 mM HEPES pH 7.4; probe 10 uM; quantum yield 0.21; no constant

binding [1]: yes | binding [2]: yes | binding [3]: yes | binding [4]: yes
SMILES: C[n+]1ccn(Cc2ccc3ccccc3c2)c1
